Assay results as given in ChEMBL document CHEMBL3885861, “Open TG-GATES”.

Species: Rattus norvegicus
Experiment: Open TG-GATES - Regimen: Single
Format: toxicity, organism-based, Sprague-Dawley
Parameters: regimen Single, gender Male, age 6 weeks
Settings: in vivo, po, 0 mg/kg, route gavage, dose level Control; for Bas / Eos / Fbg / Hb / Ht / Lym / MCH / MCHC / Mono / Neu / PT / Plat / RBC / Ret / WBC: tissue Blood; for KIDNEY_L / KIDNEY_R / KIDNEY_TOTAL: tissue Kidney; for LIVER: tissue Liver; for ALP / ALT / AST / BUN / CRE / Ca / DBIL / IP / K / LDH / Na / PL / RALB / TBIL / TC / TG / TP / gamma-GTP: tissue Plasma

In the case of `CCC(C)(C)C(=O)O[C@H]1C[C@@H](C)C=C2C=C[C@H](C)[C@H](CC[C@@H]3C[C@@H](O)CC(=O)O3)[C@H]21` [SIMVASTATIN], the TERMINAL_BW (3 h) is reported as 203.4 g, the Bas (3 h) is reported as 0% and the Eos (3 h) is reported as 1%. For the same compound, the Fbg (3 h) was 216.8 mg/dL, the Hb (3 h) was 12.9 g/dL and the Ht (3 h) was 39.1%. The Lym (3 h) was 83.6%, the MCH (3 h) was 21.5 pg and the MCHC (3 h) was 32.8%. It also gave a Mono (3 h) of 6%, a Neu (3 h) of 9.6% and a PT (3 h) of 11 s. The Plat (3 h) was 101.5 x10_4/uL, the RBC (3 h) was 596.2 x10_4/ul and the Ret (3 h) was 7.8%. For the same compound, the WBC (3 h) was 114.1 x10_2/uL, the KIDNEY_L (3 h) was 0.9 g and the KIDNEY_R (3 h) was 1 g. For the same compound, the KIDNEY_TOTAL (3 h) was 1.9 g, the LIVER (3 h) was 9.7 g and the ALP (3 h) was 839.8 IU/L. For the same compound, the ALT (3 h) was 35.4 IU/L, the AST (3 h) was 61.6 IU/L and the BUN (3 h) was 14.4 mg/dL. For the same compound, the CRE (3 h) was 0.6 mg/dL, the Ca (3 h) was 11 mg/dL and the DBIL (3 h) was 0.02 mg/dL. It also gave an IP (3 h) of 9.1 mg/dL, a K (3 h) of 4.4 meq/L and an LDH (3 h) of 82.2 IU/L. For the same compound, the Na (3 h) was 138.8 meq/L, the PL (3 h) was 147.4 mg/dL and the RALB (3 h) was 3.5 g/dL. For the same compound, the TBIL (3 h) was 0.4 mg/dL, the TC (3 h) was 83.8 mg/dL and the TG (3 h) was 63.6 mg/dL. For the same compound, the TP (3 h) was 5.6 g/dL, the gamma-GTP (3 h) was 1.6 IU/L and the TERMINAL_BW (6 h) was 199.1 g. For the same compound, the Bas (6 h) was 0%, the Eos (6 h) was 1% and the Fbg (6 h) was 208.2 mg/dL. For the same compound, the Hb (6 h) was 13 g/dL, the Ht (6 h) was 39.5% and the Lym (6 h) was 79.8%. It also gave an MCH (6 h) of 21.8 pg, an MCHC (6 h) of 32.8% and a Mono (6 h) of 6.2%. It also gave a Neu (6 h) of 13%, a PT (6 h) of 11.8 s and a Plat (6 h) of 111.5 x10_4/uL. The RBC (6 h) was 597.2 x10_4/ul, the Ret (6 h) was 9.2% and the WBC (6 h) was 109.4 x10_2/uL. It also gave a KIDNEY_L (6 h) of 0.9 g, a KIDNEY_R (6 h) of 0.9 g and a KIDNEY_TOTAL (6 h) of 1.7 g. The LIVER (6 h) was 8.5 g, the ALP (6 h) was 648 IU/L and the ALT (6 h) was 29 IU/L. It also gave an AST (6 h) of 60.4 IU/L, a CRE (6 h) of 0.5 mg/dL and a Ca (6 h) of 10.8 mg/dL. For the same compound, the DBIL (6 h) was 0.046 mg/dL, the IP (6 h) was 9.4 mg/dL and the K (6 h) was 4.5 meq/L. It also gave an LDH (6 h) of 77 IU/L, a Na (6 h) of 137.8 meq/L and a PL (6 h) of 120.4 mg/dL. For the same compound, the RALB (6 h) was 3.6 g/dL, the TBIL (6 h) was 0.4 mg/dL and the TC (6 h) was 70.6 mg/dL. For the same compound, the TG (6 h) was 47.8 mg/dL, the TP (6 h) was 5.5 g/dL and the gamma-GTP (6 h) was 1 IU/L. For the same compound, the TERMINAL_BW (9 h) was 197.5 g, the Bas (9 h) was 0% and the Eos (9 h) was 1%. The Fbg (9 h) was 215.2 mg/dL, the Hb (9 h) was 13.2 g/dL and the Ht (9 h) was 40.2%. It also gave a Lym (9 h) of 85.6%, an MCHC (9 h) of 32.9% and a Mono (9 h) of 5.4%. The Neu (9 h) was 8.2%, the PT (9 h) was 11.7 s and the Plat (9 h) was 114.5 x10_4/uL. For the same compound, the RBC (9 h) was 605.4 x10_4/ul, the Ret (9 h) was 10.2% and the WBC (9 h) was 96.4 x10_2/uL. The KIDNEY_L (9 h) was 0.9 g, the KIDNEY_R (9 h) was 0.9 g and the KIDNEY_TOTAL (9 h) was 1.8 g. It also gave an LIVER (9 h) of 8.4 g, an ALP (9 h) of 810.4 IU/L and an ALT (9 h) of 29.2 IU/L. For the same compound, the AST (9 h) was 58.4 IU/L, the BUN (9 h) was 12.2 mg/dL and the CRE (9 h) was 0.6 mg/dL. For the same compound, the Ca (9 h) was 10.9 mg/dL, the DBIL (9 h) was 0.04 mg/dL and the IP (9 h) was 10.9 mg/dL. It also gave a K (9 h) of 4.6 meq/L, an LDH (9 h) of 68.2 IU/L and a Na (9 h) of 137.6 meq/L. The PL (9 h) was 110.8 mg/dL, the RALB (9 h) was 3.7 g/dL and the TBIL (9 h) was 0.4 mg/dL. The TC (9 h) was 61.8 mg/dL, the TG (9 h) was 34.2 mg/dL and the TP (9 h) was 5.2 g/dL. The gamma-GTP (9 h) was 1.8 IU/L, the TERMINAL_BW (24 h) was 215.6 g and the Bas (24 h) was 0%. It also gave an Eos (24 h) of 1%, a Fbg (24 h) of 222.6 mg/dL and a Hb (24 h) of 13 g/dL. It also gave a Ht (24 h) of 40.1%, a Lym (24 h) of 82.8% and an MCHC (24 h) of 32.5%. The Mono (24 h) was 8.2%, the Neu (24 h) was 8.4% and the Plat (24 h) was 113.8 x10_4/uL. It also gave an RBC (24 h) of 614 x10_4/ul, a Ret (24 h) of 9.5% and a KIDNEY_L (24 h) of 1 g. It also gave a KIDNEY_R (24 h) of 1 g, a KIDNEY_TOTAL (24 h) of 2 g and an ALP (24 h) of 887.6 IU/L. For the same compound, the ALT (24 h) was 38.8 IU/L, the AST (24 h) was 65 IU/L and the BUN (24 h) was 18.6 mg/dL. It also gave a CRE (24 h) of 0.6 mg/dL, a Ca (24 h) of 10.8 mg/dL and a DBIL (24 h) of 0.05 mg/dL. It also gave an IP (24 h) of 8 mg/dL, a K (24 h) of 4.6 meq/L and an LDH (24 h) of 97.8 IU/L. The Na (24 h) was 139.4 meq/L, the PL (24 h) was 144.8 mg/dL and the RALB (24 h) was 3.7 g/dL. For the same compound, the TBIL (24 h) was 0.4 mg/dL and the TC (24 h) was 79.6 mg/dL.
